{"source": "patent US8129340B2", "about": "“Inhibitors of protein phosphatase 1, GADD34 and protein phosphatase 1/GADD34 complex, preparation and uses thereof” (Institut Gustave Roussy, priority 2006, dated 2012)", "key": {"CT26 tumours [1]": {"test_system": "CT26 tumours", "experiment": "Intratumoural treatment of established CT26 tumours in immunodeficient mice", "type": "in vivo, athymic nu/nu Balb/c mice", "conditions": "single intratumoural injection"}, "cell surface CRT": {"test_system": "cell surface CRT", "experiment": "Fluorescence detection of cell surface CRT on CT26 cells (cytofluorometry)", "type": "cell-based, murine", "conditions": "agent alone", "experimental": "FIG. 1SA, FIG. 1SB: Kinetics of CRT exposure. CT26 cells were treated with mitoxantrone for the indicated period, followed by immunofluorescence staining with a CRT-specific antibody and cytofluorometric analysis.\nFIG. 2E: Correlation between CRT exposure and immunogenicity. The surface exposure of CRT was determined by immunofluorescence cytometry while gating on viable (propidium iodine-negative) cells (inserts) and was correlated with the immunogenicity of cell death (as determined in FIG. 1). CO, control; Tg, thapsigargin; Tu, tunicamycin.\nFIG. 5E: Kinetics of CRT exposure determined by FACS analysis after incubation of cells with the indicated agents.\nFIG. 5F-FIG. 5G: PP1/GADD34 inhibitors render cell immunogenic via CRT. Tumour cells were first transfected with a control siRNA or a CRT-specific siRNA and then treated in vitro with etoposide, alone or in combination with PP1/GADD34 inhibitors. […] The results represent the % of tumour free mice (comprising a total of 12 to 18 mice per group).\nCT26 cells (on a glass slide or in 12-well plates) were first washed with FACS buffer (1×PBS, 5% fetus bovine serum, and 0.1% sodium azide) and then incubated with rabbit anti-mouse CRT antibody (1:100, Stressgen) in FACS buffer at 4° C. for 30 min. Cells reacted with anti-rabbit IgG (H+L) Alexa fluor 488-conjugates (1:500) in FACS buffer at 4° C. for 30 min. After washing three times with FACS buffer, surface CRT was detected by cytofluorometric analysis on a FACS Vantage. In some experiments, cells were fixed with 4% paraformaldehyde, counterstained with Hoechst (2 μM; Sigma), followed by fluorescence microscopic assessment with a Leica IRE2 microscope equipped with a DC300F camera."}, "CT26 tumours [2]": {"test_system": "CT26 tumours", "experiment": "Intratumoural treatment of established CT26 tumours in immunocompetent mice", "type": "in vivo, BALB/c mice (wild type)"}, "ERp57": {"test_system": "ERp57", "experiment": "Flow cytometric detection of surface ERp57 on HeLa cells", "type": "cell-based, human", "conditions": "150 nM, 2 h", "experimental": "HeLa cells were treated with or without mitoxantrone (MTX, 1 μM) or tautomycin (Tau, 150 nM, Sigma) for 2 h. Cells were washed twice with PBS and fixed in PFA (4% w/v) for 5 min. HeLa cells were stained with an antibody against Erp57 (pAb from Abcam, ab10827) at 1:200 dilution or isotype control, in staining buffer (PBS, 1% FCS) for 30 min on ice, followed by washing. An anti-rabbit Alexa fluor 488 immunoglobulin conjugate (Molecular Probes-Invitrogen) diluted at 1:500 was added for an additional 30 min on ice before washing and analysed by flow cytometry (FACScan, Becton Dickinson). Propidium Iodide (50 μg/ml, Becton Dickinson) was added to the samples to label and exclude permeabilized (dead) cells. The CellQuest software was used to analyse the mean fluorescence intensity (MFI) and the percentage of ERp57 positive cells."}, "CT26 tumour cells": {"test_system": "CT26 tumour cells", "experiment": "Anti-tumour vaccination: dying treated CT26 cells injected in one flank, later challenge with live tumour cells", "type": "in vivo, BALB/c mice", "conditions": "without cell death inducer"}, "CRT": {"test_system": "CRT", "experiment": "Inhibitory profile of CRT exposure (pre-incubation with inhibitors, immunocytofluorometry)", "type": "cell-based", "conditions": "pre-incubation for 1 h", "experimental": "FIG. 3S: Inhibitory profile of CRT exposure. Cells were treated with mitoxantrone or inhibitors of PP1/GADD34, after pre-incubation for 1 h with the indicated inhibitors of protein synthesis (cycloheximide), RNA synthesis (actinomycin D), microtubuli (nocodazol), or the actin cytoskeleton (latrunculin A). Then, CRT expression was determined by immunocytofluorometry. Results are means of triplicates±SD for one representative experiment out of three."}}}
{"smiles": "CO[C@H]([C@H](O)CC(=O)[C@@H](C)[C@@H](O)CC[C@@H](C)[C@@H]1O[C@]2(CC[C@@H](C)[C@H](CC[C@H](C)C(C)=O)O2)CC[C@@H]1C)[C@H](OC(=O)C[C@@H](O)C1=C(C)C(=O)OC1=O)C(C)C", "note": "[tautomycin]", "values": [{"measurement": "therapeutic effect of single agent on established tumours, nu/nu mice", "setting": "CT26 tumours [1]", "result": "no major therapeutic effect"}, {"measurement": "induction of CRT exposure at the cell surface", "setting": "cell surface CRT", "result": "efficiently induced"}, {"measurement": "therapeutic effect combined with a cell death inducer (etoposide or mitomycin C), immunocompetent mice", "setting": "CT26 tumours [2]; intratumoural injection with etoposide or mitomycin C", "result": "stable disease or complete tumour regression"}, {"measurement": "therapeutic effect of single agent on established tumours, immunocompetent mice", "setting": "CT26 tumours [2]; single intratumoural injection, 14-day-old CT26 tumours", "result": "no major therapeutic effect"}, {"measurement": "surface exposure of ERp57, HeLa cells", "setting": "ERp57", "result": "stimulates the surface exposure or ERp57"}, {"measurement": "induction of immunogenic cell death by the inhibitor alone", "setting": "CT26 tumour cells", "result": "not sufficient to induce immunogenic cell death"}]}
{"smiles": "C/C1=C/C(=O)O[C@@H]2C[C@@H](CC[C@H](C)/C=C\\C=C\\CC1)O[C@@](O)([C@@H]1CSC(=O)N1)C2", "note": "[latrunculin A]", "values": [{"measurement": "effect on CRT exposure induced by anthracyclins and PP1/GADD34 inhibitors", "setting": "CRT", "result": "abolished"}]}
